The values below come from article PMC7182704 (Computational and Structural Biotechnology Journal, 2020).

The target in one data set is T1, DmmA (Lyngbya majuscula, UniProt Q6DND9).
T1 sequence (Q6DND9 25-341): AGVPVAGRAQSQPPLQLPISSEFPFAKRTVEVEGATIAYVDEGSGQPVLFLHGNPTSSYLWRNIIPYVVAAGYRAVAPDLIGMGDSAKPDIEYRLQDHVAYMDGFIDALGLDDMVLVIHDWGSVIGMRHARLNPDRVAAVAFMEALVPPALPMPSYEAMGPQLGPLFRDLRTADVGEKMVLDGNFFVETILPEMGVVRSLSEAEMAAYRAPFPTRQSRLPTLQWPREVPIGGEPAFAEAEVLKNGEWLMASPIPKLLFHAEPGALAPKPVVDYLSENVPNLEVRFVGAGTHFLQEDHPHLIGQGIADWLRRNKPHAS
As to conditions: 37 °C, pH 8.6; cited from earlier work.

For data set [1], the target named is T2, LinB (Sphingobium indicum, UniProt D4Z2G1).
T2 sequence (D4Z2G1 1-296): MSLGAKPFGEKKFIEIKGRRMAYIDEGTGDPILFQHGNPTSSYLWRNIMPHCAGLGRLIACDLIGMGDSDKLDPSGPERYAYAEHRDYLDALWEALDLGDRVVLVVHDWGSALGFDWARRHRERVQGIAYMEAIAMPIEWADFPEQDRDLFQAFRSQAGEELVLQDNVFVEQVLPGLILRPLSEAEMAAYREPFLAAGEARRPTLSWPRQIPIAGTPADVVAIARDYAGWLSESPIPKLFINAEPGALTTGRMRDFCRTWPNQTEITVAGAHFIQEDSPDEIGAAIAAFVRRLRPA
As to conditions: 37 °C, pH 8.6; cited from earlier work.

For the next data set, the system named is DhlA. As to conditions: pH 8.2, 30 °C; cited from earlier work.
Data set [2] addresses T2, LinB. The conditions noted are these: pH 8.6, 37 °C, cited from earlier work.
A further data set has as its system DhaA. As to conditions: pH 9.4, 30 °C; cited from earlier work.
The nature of data set [3]: Photophysical properties of fluorescent substrates. It counts as physicochemical.
Data set [4] in a line: Stability of COU–Br and BDP–Cl in the dark and under irradiation. The class given is physicochemical. The conditions noted are these: 10 µM, pH 8.0, 30 °C.
Substrate in data set [5]: COc1cc2oc(=O)cc(CBr)c2cc1OC
Description: Steady-state kinetics, fluorescence progress curves fitted globally. It counts as biochemical, marine microbial consortium. As to conditions: other: DmmA, 30 °C, pH 8.0.

[6] abbreviates: PBS buffer/DMSO (90:10, v/v), pH 8.0, c ≈ 10^−6 M.

In the case of `BrCCBr` [DBE, 1,2-dibromoethane], on DmmA, the Michaelis-Menten constant (Km) (usually the concentration of substrate that gives half-maximal velocity) is 2300 ± 300 µM; the kcat (as a rule, the number of substrate molecules converted per active site and unit of time at saturation) is 1.8 ± 0.4 s⁻¹. In addition, on LinB [1], the Km is 1700 ± 200 µM and the turnover number (kcat) was 12 ± 4 s⁻¹.
As for `ClCCCl` [DCE, 1,2-dichloroethane], in the data set on DhlA, the k1 is 9 ± 1 × 10^-3 μM^−1s^−1, the k2 is 50 ± 10 s⁻¹, the k3 is 14 ± 3 s⁻¹ and the k4 was 8 ± 2 s⁻¹. For the same molecule, the “k−1” value in the data set on DhlA was 20 ± 5 s⁻¹.
For the molecule `CCCCCCCl` [CH, 1-chlorohexane], the k3 at LinB [2] (three-step model) is 3.2 ± 0.2 s⁻¹. Besides, the k2 on LinB [2] is 117 ± 5 s⁻¹.
For `BrCCCBr` [DBP, 1,3-dibromopropane], in the data set with DhaA, the k1 is 800000 to 2.5e+06 M⁻¹ s⁻¹, the k2 is 249 to 272 s⁻¹, the k3 is 13.5 to 16.3 s⁻¹ and the k4 was 3.4 to 4.6 s⁻¹. Also, in the data set with DhaA, the “k−1” value is 60 to 300 s⁻¹.
As to `COc1cc2oc(=O)cc(CBr)c2cc1OC` [COU–Br, 4-(bromomethyl)-6,7-dimethoxycoumarin], in data set [3], the “increase in quantum yield upon covalent binding to HLDs” value turned out to be 6 fold. For the same molecule, in data set [3] (setting [6]), the “Φfl (quantum yield of fluorescence)” value is recorded as 15.2 ± 1.2% and the “λmax (absorption maximum)” value was 354 nm. Also, the “ε (molar absorption coefficient)” value in data set [3] (neat DMSO, three independent measurements) was 11,500 M^−1cm^−1. In data set [4] (PBS buffer/DMSO (90:10), xenon lamp 100 W, 10 min), the stability under irradiation entry is reported as “slowly degraded under irradiation”. The “stability in the dark” value in data set [4] (PBS buffer/DMSO (90:10, v/v)) is on record as “stable in the dark”.
Regarding `CCCCCl` [CB, 1-chlorobutane], at DmmA, the Km is 400 ± 100 µM and the kcat is 0.17 ± 0.02 s⁻¹. Moreover, on LinB [1], the Km was 240 ± 20 µM and the turnover number (kcat) was 1.00 ± 0.03 s⁻¹.

B1: DmmA (Lyngbya majuscula) (protein)
chain: AGVPVAGRAQSQPPLQLPISSEFPFAKRTVEVEGATIAYVDEGSGQPVLFLHGNPTSSYLWRNIIPYVVAAGYRAVAPDLIGMGDSAKPDIEYRLQDHVAYMDGFIDALGLDDMVLVIHDWGSVIGMRHARLNPDRVAAVAFMEALVPPALPMPSYEAMGPQLGPLFRDLRTADVGEKMVLDGNFFVETILPEMGVVRSLSEAEMAAYRAPFPTRQSRLPTLQWPREVPIGGEPAFAEAEVLKNGEWLMASPIPKLLFHAEPGALAPKPVVDYLSENVPNLEVRFVGAGTHFLQEDHPHLIGQGIADWLRRNKPHAS
Turning to B1, in data set [5], the Km stood at 0.9 ± 0.6 µM, the kcat is 1.9 ± 0.1 s⁻¹ and the specificity constant (kcat/Km) (commonly the turnover number divided by the Michaelis constant) worked out at 2.1e+06 M⁻¹ s⁻¹.
